Measured values from patent US8952024B2, “Herbicidal pyrimidone derivatives” (E I du Pont de Nemours and Company, priority 2009, dated 2015).

Tests used:
Format in all cases: in vivo
[1] = system: Surinam grass (Brachiaria decumbens); assay: Test B pre-/postemergence plant response; settings: Postemergence
Procedure, shortened: (§1)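 Each species received compound formulated in non-phytotoxic solvent with surfactant, either at planting into a loam and sand blend or as a foliar spray once plants reached 2 to 18 cm in peat-based medium. Plants stayed in the greenhouse 13 to 15 days before visual evaluation against controls, scored 0 (no effect) to 100 (complete control).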

[2] = system: wheat (Triticum aestivum); assay: Test B pre-/postemergence plant response; settings: Postemergence
Procedure, shortened: as §1

[3] = system: downy bromegrass (Bromus tectorum); assay: Test B pre-/postemergence plant response; settings: for Bromegrass, Downy plant response rating (0 to 100 scale): 62 g ai/ha, postemergence, 0 is no effect, 100 is complete control; for Plant response rating, Bromegrass, Downy: Postemergence
Procedure, shortened: as §1

[4] = system: pigweed (Amaranthus retroflexus); assay: Test B pre-/postemergence plant response; settings: Postemergence
Procedure, shortened: as §1

[5] = system: bermudagrass (Cynodon dactylon); assay: Test B pre-/postemergence plant response; settings: for Bermudagrass plant response rating (0 to 100 scale): 62 g ai/ha, postemergence, 0 is no effect, 100 is complete control; for Plant response rating, Bermudagrass: Postemergence
Procedure, shortened: as §1

[6] = system: yellow nutsedge (Cyperus esculentus); assay: Test B pre-/postemergence plant response; settings: Postemergence
Procedure, shortened: as §1

[7] = system: woolly cupgrass (Eriochloa villosa); assay: Test B pre-/postemergence plant response; settings: Postemergence
Procedure, shortened: as §1

[8] = system: lambsquarters (Chenopodium album); assay: Test B pre-/postemergence plant response; settings: Postemergence
Procedure, shortened: as §1

[9] = system: ducksalad (Heteranthera limosa); assay: Test B flooded paddy test; settings: for Plant response rating, Ducksalad: Flood (flooded paddy test), 13 to 15 days; for Ducksalad plant response rating: Flood, 31 g ai/ha, scale 0 to 100 (0 no effect, 100 complete control); for Plant response rating, Flood, Ducksalad: 250 g ai/ha, flooded paddy test, visual rating on 0 to 100 scale (0 no effect, 100 complete control) after 13 to 15 days
Procedure, shortened: (§2)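 Post-flood paddy application: compounds are introduced into water 3 cm deep over the soil, reaching plants at the 2-leaf stage. The water level is maintained, and after 13–15 days under greenhouse conditions, response is judged by eye relative to controls, where 100 means complete control.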

[10] = system: barnyardgrass (Echinochloa crus-galli); assay: Test B flooded paddy test; settings: for Plant response rating, Barnyardgrass: Flood (flooded paddy test), 13 to 15 days; for Barnyardgrass plant response rating: Flood, 31 g ai/ha, scale 0 to 100 (0 no effect, 100 complete control); for Plant response rating, Flood, Barnyardgrass: 250 g ai/ha, flooded paddy test, visual rating on 0 to 100 scale (0 no effect, 100 complete control) after 13 to 15 days
Procedure, shortened: as §2

rice (Oryza sativa) = assay: Test B flooded paddy test; settings: for Plant response rating, Rice: Flood (flooded paddy test), 13 to 15 days; for Rice plant response rating: Flood, 31 g ai/ha, scale 0 to 100 (0 no effect, 100 complete control); for Plant response rating, Flood, Rice: 250 g ai/ha, flooded paddy test, visual rating on 0 to 100 scale (0 no effect, 100 complete control) after 13 to 15 days
Procedure, shortened: as §2

[11] = system: umbrella sedge (Cyperus difformis); assay: Test B flooded paddy test; settings: for Plant response rating, Sedge, Umbrella: Flood (flooded paddy test), 13 to 15 days; for Sedge, Umbrella plant response rating: Flood, 31 g ai/ha, scale 0 to 100 (0 no effect, 100 complete control); for Plant response rating, Flood, Sedge, Umbrella: 250 g ai/ha, flooded paddy test, visual rating on 0 to 100 scale (0 no effect, 100 complete control) after 13 to 15 days
Procedure, shortened: as §2

[12] = 31 g ai/ha, 0 to 100 scale (0 no effect, 100 complete control)
[13] = 125 g ai/ha, scale 0 to 100 (0 no effect, 100 complete control)
[14] = 250 g ai/ha, scale 0 to 100 (0 no effect, 100 complete control), 13 to 15 days
[15] = 125 g ai/ha, scale 0 to 100, 0 is no effect, 100 is complete control
[16] = 62 g ai/ha, scale of 0 to 100 where 0 is no effect and 100 is complete control

## Cc1ccc(F)cc1-n1c(-c2cccc(Cl)c2)ncc(C(=O)C2=C(O)CCCC2=O)c1=O [Compound 157]
[1]; [12]
  Plant response rating, Surinam Grass: 75
[1]; [13]
  Plant response rating, Surinam Grass: 98
[1]; [14]
  Plant response rating, Surinam Grass: 100
[2]; [12]
  Plant response rating, Wheat: 0
[2]; [13]
  Plant response rating, Wheat: 20
[2]; [14]
  Plant response rating, Wheat: 30
[3]; 13 to 15 days
  Bromegrass, Downy plant response rating (0 to 100 scale): 40
[3]; [12]
  Plant response rating, Bromegrass, Downy: 40
[3]; [13]
  Plant response rating, Bromegrass, Downy: 60
[3]; [14]
  Plant response rating, Bromegrass, Downy: 65
[4]; [12]
  Plant response rating, Pigweed: 65
[4]; [13]
  Plant response rating, Pigweed: 90
[4]; [14]
  Plant response rating, Pigweed: 98
[5]; 13 to 15 days
  Bermudagrass plant response rating (0 to 100 scale): 90
[5]; [12]
  Plant response rating, Bermudagrass: 75
[5]; [13]
  Plant response rating, Bermudagrass: 100
[5]; [14]
  Plant response rating, Bermudagrass: 100
[6]; [12]
  Plant response rating, Nutsedge, Yellow: 30
[6]; [13]
  Plant response rating, Nutsedge, Yellow: 40
[6]; [14]
  Plant response rating, Nutsedge, Yellow: 45
[7]; [12]
  Plant response rating, Cupgrass, Woolly: 85
[7]; [13]
  Plant response rating, Cupgrass, Woolly: 98
[7]; [14]
  Plant response rating, Cupgrass, Woolly: 98
[8]; [12]
  Plant response rating, Lambsquarters: 98
[8]; [13]
  Plant response rating, Lambsquarters: 100
[8]; [14]
  Plant response rating, Lambsquarters: 100
[9]; [15]
  Plant response rating, Ducksalad: 70
[9]
  Ducksalad plant response rating: 50
[10]; [15]
  Plant response rating, Barnyardgrass: 0
[10]
  Barnyardgrass plant response rating: 0
Rice (Oryza sativa); [15]
  Plant response rating, Rice: 0
Rice (Oryza sativa)
  Rice plant response rating: 0
[11]; [15]
  Plant response rating, Sedge, Umbrella: 75
[11]
  Sedge, Umbrella plant response rating: 40

## O=C1CCCC(O)=C1C(=O)c1cnc(-c2ccccc2)n(C2CCSCC2)c1=O [Compound 164]
[1]; [12]
  Plant response rating, Surinam Grass: 60
[1]; [13]
  Plant response rating, Surinam Grass: 95
[1]; [14]
  Plant response rating, Surinam Grass: 98
[2]; [12]
  Plant response rating, Wheat: 0
[2]; [13]
  Plant response rating, Wheat: 35
[2]; [14]
  Plant response rating, Wheat: 50
[3]; 13 to 15 days
  Bromegrass, Downy plant response rating (0 to 100 scale): 80
[3]; [12]
  Plant response rating, Bromegrass, Downy: 40
[3]; [13]
  Plant response rating, Bromegrass, Downy: 85
[3]; [14]
  Plant response rating, Bromegrass, Downy: 95
[4]; [12]
  Plant response rating, Pigweed: 98
[4]; [13]
  Plant response rating, Pigweed: 100
[4]; [14]
  Plant response rating, Pigweed: 100
[5]; 13 to 15 days
  Bermudagrass plant response rating (0 to 100 scale): 98
[5]; [12]
  Plant response rating, Bermudagrass: 70
[5]; [13]
  Plant response rating, Bermudagrass: 98
[5]; [14]
  Plant response rating, Bermudagrass: 100
[6]; [12]
  Plant response rating, Nutsedge, Yellow: 40
[6]; [13]
  Plant response rating, Nutsedge, Yellow: 70
[6]; [14]
  Plant response rating, Nutsedge, Yellow: 75
[7]; [12]
  Plant response rating, Cupgrass, Woolly: 75
[7]; [13]
  Plant response rating, Cupgrass, Woolly: 98
[7]; [14]
  Plant response rating, Cupgrass, Woolly: 100
[8]; [12]
  Plant response rating, Lambsquarters: 98
[8]; [13]
  Plant response rating, Lambsquarters: 100
[8]; [14]
  Plant response rating, Lambsquarters: 100
[9]
  Plant response rating, Flood, Ducksalad: 85
  Ducksalad plant response rating: 0
[9]; [16]
  Plant response rating, Ducksalad: 0
[9]; [15]
  Plant response rating, Ducksalad: 0
[10]
  Plant response rating, Flood, Barnyardgrass: 0
  Barnyardgrass plant response rating: 0
[10]; [16]
  Plant response rating, Barnyardgrass: 0
[10]; [15]
  Plant response rating, Barnyardgrass: 0
Rice (Oryza sativa)
  Plant response rating, Flood, Rice: 35
  Rice plant response rating: 0
Rice (Oryza sativa); [16]
  Plant response rating, Rice: 0
Rice (Oryza sativa); [15]
  Plant response rating, Rice: 20
[11]
  Plant response rating, Flood, Sedge, Umbrella: 90
  Sedge, Umbrella plant response rating: 0
[11]; [16]
  Plant response rating, Sedge, Umbrella: 0
[11]; [15]
  Plant response rating, Sedge, Umbrella: 0

## O=C1CCCC(O)=C1C(=O)c1cnc(-c2cc(F)cc(F)c2)n(C2CCCCC2)c1=O [Compound 181]
[1]; [12]
  Plant response rating, Surinam Grass: 70
[1]; [13]
  Plant response rating, Surinam Grass: 95
[1]; [14]
  Plant response rating, Surinam Grass: 100
[2]; [12]
  Plant response rating, Wheat: 40
[2]; [13]
  Plant response rating, Wheat: 50
[2]; [14]
  Plant response rating, Wheat: 70
[3]; 13 to 15 days
  Bromegrass, Downy plant response rating (0 to 100 scale): 50
[3]; [12]
  Plant response rating, Bromegrass, Downy: 40
[3]; [13]
  Plant response rating, Bromegrass, Downy: 60
[3]; [14]
  Plant response rating, Bromegrass, Downy: 85
[4]; [12]
  Plant response rating, Pigweed: 100
[4]; [13]
  Plant response rating, Pigweed: 100
[4]; [14]
  Plant response rating, Pigweed: 100
[5]; 13 to 15 days
  Bermudagrass plant response rating (0 to 100 scale): 100
[5]; [12]
  Plant response rating, Bermudagrass: 100
[5]; [13]
  Plant response rating, Bermudagrass: 100
[5]; [14]
  Plant response rating, Bermudagrass: 100
[6]; [12]
  Plant response rating, Nutsedge, Yellow: 60
[6]; [13]
  Plant response rating, Nutsedge, Yellow: 80
[6]; [14]
  Plant response rating, Nutsedge, Yellow: 85
[7]; [12]
  Plant response rating, Cupgrass, Woolly: 80
[7]; [13]
  Plant response rating, Cupgrass, Woolly: 100
[7]; [14]
  Plant response rating, Cupgrass, Woolly: 100
[8]; [12]
  Plant response rating, Lambsquarters: 100
[8]; [13]
  Plant response rating, Lambsquarters: 100
[8]; [14]
  Plant response rating, Lambsquarters: 100
[9]; [15]
  Plant response rating, Ducksalad: 90
[9]
  Ducksalad plant response rating: 85
[10]; [15]
  Plant response rating, Barnyardgrass: 70
[10]
  Barnyardgrass plant response rating: 0
Rice (Oryza sativa); [15]
  Plant response rating, Rice: 65
Rice (Oryza sativa)
  Rice plant response rating: 0
[11]; [15]
  Plant response rating, Sedge, Umbrella: 85
[11]
  Sedge, Umbrella plant response rating: 75

## Cc1ccc(Cl)cc1-n1c(-c2cccc(F)c2)ncc(C(=O)C2=C(O)CCCC2=O)c1=O [Compound 184]
[1]; [12]
  Plant response rating, Surinam Grass: 80
[1]; [13]
  Plant response rating, Surinam Grass: 100
[1]; [14]
  Plant response rating, Surinam Grass: 100
[2]; [12]
  Plant response rating, Wheat: 30
[2]; [13]
  Plant response rating, Wheat: 55
[2]; [14]
  Plant response rating, Wheat: 60
[3]; 13 to 15 days
  Bromegrass, Downy plant response rating (0 to 100 scale): 50
[3]; [12]
  Plant response rating, Bromegrass, Downy: 40
[3]; [13]
  Plant response rating, Bromegrass, Downy: 50
[3]; [14]
  Plant response rating, Bromegrass, Downy: 60
[4]; [12]
  Plant response rating, Pigweed: 70
[4]; [13]
  Plant response rating, Pigweed: 75
[4]; [14]
  Plant response rating, Pigweed: 100
[5]; 13 to 15 days
  Bermudagrass plant response rating (0 to 100 scale): 100
[5]; [12]
  Plant response rating, Bermudagrass: 98
[5]; [13]
  Plant response rating, Bermudagrass: 100
[5]; [14]
  Plant response rating, Bermudagrass: 100
[6]; [12]
  Plant response rating, Nutsedge, Yellow: 35
[6]; [13]
  Plant response rating, Nutsedge, Yellow: 45
[6]; [14]
  Plant response rating, Nutsedge, Yellow: 75
[7]; [12]
  Plant response rating, Cupgrass, Woolly: 75
[7]; [13]
  Plant response rating, Cupgrass, Woolly: 100
[7]; [14]
  Plant response rating, Cupgrass, Woolly: 100
[8]; [12]
  Plant response rating, Lambsquarters: 80
[8]; [13]
  Plant response rating, Lambsquarters: 100
[8]; [14]
  Plant response rating, Lambsquarters: 100
[9]
  Plant response rating, Flood, Ducksalad: 100
  Ducksalad plant response rating: 95
[9]; [16]
  Plant response rating, Ducksalad: 100
[9]; [15]
  Plant response rating, Ducksalad: 100
[10]
  Plant response rating, Flood, Barnyardgrass: 25
  Barnyardgrass plant response rating: 0
[10]; [16]
  Plant response rating, Barnyardgrass: 0
[10]; [15]
  Plant response rating, Barnyardgrass: 20
Rice (Oryza sativa)
  Plant response rating, Flood, Rice: 15
  Rice plant response rating: 15
Rice (Oryza sativa); [16]
  Plant response rating, Rice: 15
Rice (Oryza sativa); [15]
  Plant response rating, Rice: 15
[11]
  Plant response rating, Flood, Sedge, Umbrella: 95
  Sedge, Umbrella plant response rating: 65
[11]; [16]
  Plant response rating, Sedge, Umbrella: 80
[11]; [15]
  Plant response rating, Sedge, Umbrella: 80
